System: Karpas cells
Test: Detection of surface protein combinations of the protein network on untreated (V1) and actinonin-treated (V2) Karpas cells
Assay type: cell-based
Settings: for V2 no. of cells In 1/1OOO / V2 No. of cells In 1/1000: actinonin-treated Karpas cells (V2)
Excerpt: Principally, detecting of the surface protein combinations may comprise procedural steps of an automated method for determining molecular classes, molecular groups or molecular parts in a solid or liquid object according to DE 197 09 348 C. In these steps, surface proteins may be examined and measured in one and the same object, i.e. in a sample of immune cells and/or tumor cells for example, by sequentially applying reagent solutions Yn (n=1,2,3, . . . N) by means of an automated apparatus, said procedural steps being: I. taking a first reagent solution Y1 from a vessel containing the reagent solution, II. applying said reagent solution Y1 to the object which is on an object slide, III. allowing the reagent solution to react for an automatically set period of time, IV. recording at least one individual labeling pattern of the object previously labeled with said first reagent solution Y1, V. repeating steps I-IV by applying said first reagent solution Y1 or a second reagent solution Y2 or a mixture of said first and second reagent solutions, and VI. repeating steps I to V with further reagent solutions Yn (n=2,3, . . . N) or a mixture thereof and whereby the labeling distribution patterns obtained in each cycle of the method are turned into a complex molecular combination pattern of the object to be examined by computer-aided image overlay. From this combination pattern, information may be gained on the presence of the above mentioned proteins, thus also allowing detection of the surface protein combinations, if the reagent solutions used contain labeled substances directed against the proteins in question. In numerous examinations, it was possible to identify the 30 cell surface proteins already listed above which belong to a specific protein network controlling the early polarization stages of tumor cells and immune cells. In a further examination, surface protein combinations of this protein network of Karpas cells were detected, both in untreated form and after treatment with the aminopeptidase inhibitor actinonin. For this purpose, two groups V1 and V2 of Karpas cells were formed, with the cells of group Vl remaining untreated, while the cells of group V2 were treated with actinonin. Table 2 lists those surface protein combinations which are present both in the actinonin-treated cells and in the untreated cells. However, this table and the further tables 3 and 4 only give examples of 18 of the 30 proteins, with the detected proteins being designated 1 and the non-detected proteins being designated 0. The proteins are continuously numbered 1 to 18, with the nomenclature being notable from table 1. [table] The cell numbers stated in tables 2 to 4 refer to each 1,000 cells examined in groups V1 and V2. Table 3 lists the surface protein combinations which only occur in the untreated Karpas cells and are never found in the actinonin-treated Karpas cells. The number of protein combinations listed in this table 3 amounts to 131. Finally, table 4 exclusively lists those surface protein combinations which occur exclusively in the actinonin-treated Karpas cells. It may be gathered from tables 2 to 4 that, if one examines merely 18 proteins of the 30 proteins, a total of 394 different surface protein combinations will occur, with a total of 334 different combinations occurring in the untreated cells and a total of 263 different combinations being detected in the treated cells.

CCCCC[C@H](CC(=O)NO)C(=O)N[C@H](C(=O)N1CCC[C@H]1CO)C(C)C [actinonin]
number of different surface protein combinations detected in the treated cells (18 of the 30 proteins examined, untreated cells: 334, overall 394): 263 | number of surface protein combinations present both in actinonin-treated and untreated cells (Table 2, 18 proteins): 203 | number of surface protein combinations occurring only in untreated Karpas cells, never found in actinonin-treated cells (Table 3, 18 proteins): 131 | number of surface protein combinations occurring exclusively in the actinonin-treated Karpas cells (Table 4, 18 proteins): 60 | effect of the modification of surface protein combinations on cell polarization (actinonin-treated Karpas cells): specific blocking of cell polarization | V2 no. of cells In 1/1OOO (protein code No. 149, proteins 1-18 binary 000100010111001000): 0.1 1/1OOO | V2 no. of cells In 1/1OOO (protein code No. 150, proteins 1-18 binary 000000010101011000): 0.1 1/1OOO | V2 no. of cells In 1/1OOO (protein code No. 151, proteins 1-18 binary 011000001101001000): 0.2 1/1OOO | V2 no. of cells In 1/1OOO (protein code No. 152, proteins 1-18 binary 010000011101001000): 0.2 1/1OOO | V2 no. of cells In 1/1OOO (protein code No. 153, proteins 1-18 binary 001100010111011100): 0.2 1/1OOO | V2 no. of cells In 1/1OOO (protein code No. 154, proteins 1-18 binary 000000001000001000): 0.2 1/1OOO | V2 no. of cells In 1/1OOO (protein code No. 155, proteins 1-18 binary 111000011100011100): 0.3 1/1OOO | V2 no. of cells In 1/1OOO (protein code No. 156, proteins 1-18 binary 010000001101000000): 0.3 1/1OOO | V2 no. of cells In 1/1OOO (protein code No. 157, proteins 1-18 binary 001000010001000100): 0.3 1/1OOO | V2 no. of cells In 1/1OOO (protein code No. 158, proteins 1-18 binary 100100000000001000): 0.5 1/1OOO | V2 no. of cells In 1/1OOO (protein code No. 159, proteins 1-18 binary 010000011001000000): 0.5 1/1OOO | V2 no. of cells In 1/1OOO (protein code No. 160, proteins 1-18 binary 001000010101011100): 0.5 1/1OOO | V2 no. of cells In 1/1OOO (protein code No. 161, proteins 1-18 binary 000000011001001000): 0.5 1/1OOO | V2 no. of cells In 1/1OOO (protein code No. 162 (second line so numbered, r189), proteins 1-18 binary 010000001100011000): 0.2 1/1OOO | V2 no. of cells In 1/1OOO (protein code No. 162, proteins 1-18 binary 011100011101011000): 0.1 1/1OOO | V2 no. of cells In 1/1OOO (protein code No. 163, proteins 1-18 binary 011000011100011100): 0.1 1/1OOO | V2 no. of cells In 1/1OOO (protein code No. 164, proteins 1-18 binary 010000001101001000): 0.1 1/1OOO | V2 no. of cells In 1/1OOO (protein code No. 165, proteins 1-18 binary 001000010001001100): 0.1 1/1OOO | V2 no. of cells In 1/1OOO (protein code No. 166, proteins 1-18 binary 111100111111011100): 0.2 1/1OOO | V2 no. of cells In 1/1OOO (protein code No. 167, proteins 1-18 binary 111100001100001100): 0.2 1/1OOO | V2 no. of cells In 1/1OOO (protein code No. 168, proteins 1-18 binary 011000011100000000): 0.2 1/1OOO | V2 no. of cells In 1/1OOO (protein code No. 169, proteins 1-18 binary 001100010000001000): 0.2 1/1OOO | V2 no. of cells In 1/1OOO (protein code No. 170, proteins 1-18 binary 001100000001001000): 0.2 1/1OOO | V2 no. of cells In 1/1OOO (protein code No. 171, proteins 1-18 binary 001000011000000000): 0.2 1/1OOO | V2 no. of cells In 1/1OOO (protein code No. 172, proteins 1-18 binary 000000010001011000): 0.2 1/1OOO | V2 no. of cells In 1/1OOO (protein code No. 173, proteins 1-18 binary 011100011100011100): 0.3 1/1OOO | V2 no. of cells In 1/1OOO (protein code No. 174, proteins 1-18 binary 111100001100011100): 0.1 1/1OOO | V2 no. of cells In 1/1OOO (protein code No. 175, proteins 1-18 binary 101100011101011000): 0.1 1/1OOO | V2 no. of cells In 1/1OOO (protein code No. 176, proteins 1-18 binary 101000010011001000): 0.1 1/1OOO | V2 no. of cells In 1/1OOO (protein code No. 177, proteins 1-18 binary 100000000000001000): 0.1 1/1OOO | V2 no. of cells In 1/1OOO (protein code No. 178, proteins 1-18 binary 000100010101011000): 0.1 1/1OOO | V2 no. of cells In 1/1OOO (protein code No. 179, proteins 1-18 binary 000000001101001000): 0.1 1/1OOO | V2 no. of cells In 1/1OOO (protein code No. 180, proteins 1-18 binary 111100011111011000): 0.2 1/1OOO | V2 no. of cells In 1/1OOO (protein code No. 181, proteins 1-18 binary 101100110101011000): 0.2 1/1OOO | V2 no. of cells In 1/1OOO (protein code No. 183, proteins 1-18 binary 001100010100001000): 0.2 1/1OOO | V2 no. of cells In 1/1OOO (protein code No. 184, proteins 1-18 binary 001000011011011000): 0.2 1/1OOO | V2 no. of cells In 1/1OOO (protein code No. 185, proteins 1-18 binary 001000011011000000): 0.2 1/1OOO | V2 no. of cells In 1/1OOO (protein code No. 186, proteins 1-18 binary 000000011011000000): 0.2 1/1OOO | V2 no. of cells In 1/1OOO (protein code No. 187, proteins 1-18 binary 111000001100001000): 0.1 1/1OOO | V2 no. of cells In 1/1OOO (protein code No. 188, proteins 1-18 binary 101000110111011100): 0.1 1/1OOO | V2 no. of cells In 1/1OOO (protein code No. 189, proteins 1-18 binary 011100011100001100): 0.1 1/1OOO | V2 no. of cells In 1/1OOO (protein code No. 190, proteins 1-18 binary 011100011001001000): 0.1 1/1OOO | V2 no. of cells In 1/1OOO (protein code No. 191, proteins 1-18 binary 010000001111001000): 0.1 1/1OOO | V2 no. of cells In 1/1OOO (protein code No. 192, proteins 1-18 binary 001100011111011100): 0.1 1/1OOO | V2 no. of cells In 1/1OOO (protein code No. 193, proteins 1-18 binary 001100010011000000): 0.1 1/1OOO | V2 no. of cells In 1/1OOO (protein code No. 194, proteins 1-18 binary 001000110011011000): 0.1 1/1OOO | V2 no. of cells In 1/1OOO (protein code No. 195, proteins 1-18 binary 001000010011001100): 0.1 1/1OOO | V2 no. of cells In 1/1OOO (protein code No. 198 (first line so numbered, r203), proteins 1-18 binary 001000010010000000): 0.1 1/1OOO | V2 No. of cells In 1/1000 (surface protein combination No. 3, binary code proteins 1-18: 011100011101011100, untreated V1: 0.8): 0.0 1/1000 | V2 No. of cells In 1/1000 (surface protein combination No. 4, binary code proteins 1-18: 101000010011011000, untreated V1: 0.7): 0.0 1/1000 | V2 No. of cells In 1/1000 (surface protein combination No. 5, binary code proteins 1-18: 001000110101011000, untreated V1: 0.7): 0.0 1/1000 | V2 No. of cells In 1/1000 (surface protein combination No. 6, binary code proteins 1-18: 000100000000001100, untreated V1: 0.7): 0.0 1/1000 | V2 No. of cells In 1/1000 (surface protein combination No. 7, binary code proteins 1-18: 101000011111011000, untreated V1: 0.6): 0.0 1/1000 | V2 No. of cells In 1/1000 (surface protein combination No. 8, binary code proteins 1-18: 001000000010000000, untreated V1: 0.6): 0.0 1/1000 | V2 No. of cells In 1/1000 (surface protein combination No. 9, binary code proteins 1-18: 111100011101011100, untreated V1: 0.5): 0.0 1/1000 | V2 No. of cells In 1/1000 (surface protein combination No. 10, binary code proteins 1-18: 001100011101000000, untreated V1: 0.5): 0.0 1/1000 | V2 No. of cells In 1/1000 (surface protein combination No. 11, binary code proteins 1-18: 000000011111001000, untreated V1: 0.5): 0.0 1/1000 | V2 No. of cells In 1/1000 (surface protein combination No. 12, binary code proteins 1-18: 111000011101011100, untreated V1: 0.4): 0.0 1/1000 | V2 No. of cells In 1/1000 (surface protein combination No. 13, binary code proteins 1-18: 110000001100001000, untreated V1: 0.4): 0.0 1/1000 | V2 No. of cells In 1/1000 (surface protein combination No. 14, binary code proteins 1-18: 101100011111001000, untreated V1: 0.4): 0.0 1/1000 | V2 No. of cells In 1/1000 (surface protein combination No. 15, binary code proteins 1-18: 101000010001011000, untreated V1: 0.4): 0.0 1/1000 | V2 No. of cells In 1/1000 (surface protein combination No. 16, binary code proteins 1-18: 100100000100011000, untreated V1: 0.4): 0.0 1/1000 | V2 No. of cells In 1/1000 (surface protein combination No. 17, binary code proteins 1-18: 100100000001001100, untreated V1: 0.4): 0.0 1/1000 | V2 No. of cells In 1/1000 (surface protein combination No. 18, binary code proteins 1-18: 100000000000011000, untreated V1: 0.4): 0.0 1/1000

From patent publication US20030130180A1, “Utilization of an aminopeptidase inhibitor” (priority 2000, published 2003)
